# Measured values: patent US20250281629A1, “COMPOSITIONS AND METHODS FOR ANTI-PHOSPHOCHOLINE ACTIVE IMMUNOTHERAPY” (Duke University, priority 2022, published 2025)
# Where no end group is shown, it is not given here.
# Tests used:
# Type in all cases: in vivo, mouse
# [1] = tested on: plasma cells (B220^+CD138^+); experiment: Colon B cell populations by flow cytometry: plasma cells; conditions: vs disease controls
# Procedure: Determination of Colon B cell Populations. Small colon samples collected from either after immunization only or after colitis experiments were collected at experimental endpoints. Colon samples were flushed with PBS and then digested in a solution containing 200 U/mL collagenase from Clostridium histolyticum (Sigma, C5138) and 0.1 mg/mL DNase I (Sigma, 10104159001) in 1×PBS. Digestion occurred at 37° C. while shaking for a total of 30 minutes. The solutions were then filtered to isolate cells, spun down, and transferred into ice cold flow buffer (2% heat-inactivated FBS in 1×PBS). The cells were blocked with mouse BD Fc Block (Clone: 2.4G2) (BD Biosciences, 553142) for 30 min on ice and then washed in flow buffer and stained with antibodies against CD5-APC (Clone: 53-7.3) (BioLegend, 100626), CD19-APC/Cy7 (Clone: 6D5) (BioLegend, 115530), B220-PE (Clone: RA3-6B2) (BioLegend, […]), and CD138-PE/Cy7 (Clone: 281-2) (BioLegend, […]) in flow buffer for 30 min on ice. Cells were washed and DAPI was added. Flow cytometry was then conducted on a BD FACSCanto II cytometer and the results were analyzed using FlowJo software.
# C57BL/6 mice [2] = experiment: Chronic DSS-induced colitis, prophylactic immunization
# Text: (§1) DSS-Induced Colitis and Assessment. Before inducing colitis, mice from each treatment group were divided amongst the cages to avoid any cage-related disease effects. This excluded the PBS without DSS (healthy) control mice which remained in their own cage and received normal drinking water for the duration of the experiment. Colitis was induced by administering 2% (w/v) colitis-grade dextran sodium sulfate (MP Biomedicals, 160110) in drinking water. For determination of prophylactic immunization efficacy, mice were immunized i.p. 3 times at days −35, −21 and −7 before colitis induction on Day 0. Chronic colitis was induced via DSS-containing water given for 5 days followed by 5 days of normal drinking water for 3 cycles, resulting in a 30-day model. A shorter, acute DSS-induced colitis model consisting of one cycle of colitis was achieved by giving 5 days of 2% DSS in water followed by 5 days of normal drinking water for a total of 10 days and was also examined in a preventative immunization scenario. Mice were weighed daily and evaluated for the IACUC approved humane endpoint of >30% weight loss as DSS mice regain weight quickly after DSS administration ceases. They were also monitored for occult blood with Hemoccult tape and developer (Beckman Coulter, 63202) and fecal consistency. Disease activity index (DAI) scores were a combination of weight loss (≥100%=0, 90-99%=1, 80-89%=2, >80%=3), occult blood (no blood=0, blood=3), and fecal consistency (hard=0, soft=1, softer=2, runny=3), with a possible daily maximum score of 9. […] At the experimental endpoint, mice were euthanized, and colon lengths were measured from the base of the cecum to the rectum using digital calibrators. To determine immunization efficacy in a therapeutic colitis setting, colitis was first induced by administering one cycle of colitis achieved by 5 days of 2% DSS in water followed by 5 days of normal drinking water for a total of 10 days. Mice were monitored daily as described above until they on average regained their original body weight on day 20. At this point, i.p. immunizations were initiated and given three times over a 4-week period on days 20, 32, and 45, and colitis monitoring was reduced to twice weekly. An additional cycle of colitis was then induced on day 51 via 5 days of 2% DSS in water followed by 5 days of normal drinking water for a total of 10 days with daily monitoring. The entire therapeutic model ended on day 60, and colon lengths were measured as described above.
# FITC-dextran Measurements. On the last day of the chronic and therapeutic DSS colitis models, mice were fasted overnight and then given 0.6 mg/g 3-5 KDa m.w. FITC-dextran (Sigma, FD4) in 100 μL of sterile 1×PBS via oral gavage. Serum samples were collected 3 h later at the experimental endpoint. To determine the intestinal barrier permeability, serum samples were diluted in 1×PBS and FITC fluorescence intensity was measured at an excitation of 488 nm and emission of 520 nm. Values were converted to pg/mL via a standard curve of FITC-dextran in serum.
# Spleen Bacteria Measurements. At the conclusion of the DSS experiments, spleens were harvested and weighed followed by homogenization in 500 μL of 0.1% Triton X-100 in sterile 1×PBS using a Tissue Tearer handheld homogenizer (Biospec Products). 25 μL of homogenate solution was then spread on each quarter of culture plates consisting of tryptic soy broth No. 2 (Sigma, 51228) and Difco agar, granulated (BD Biosciences, 214530) in dilutions from 100 to 103. After a 48 hr incubation at 37° C., colony forming units (CFUs) were counted and converted to CFU/g of spleen tissue via the equations: […]
# Colon IL-10 Quantification. At the conclusion of some DSS experiments, one half of the harvested mouse colons were flushed with PBS to remove fecal matter and flash frozen in liquid nitrogen. […]
# C57BL/6 mice [3] = experiment: Therapeutic DSS colitis model (immunization between DSS cycles)
# Text: as §1, with “consistency.” for “consistency. Disease activity index (DAI) scores were a combination of weight loss (≥100%=0, 90-99%=1, 80-89%=2, >80%=3), occult blood (no blood=0, blood=3), and fecal consistency (hard=0, soft=1, softer=2, runny=3), with a possible daily maximum score of 9.”, “To determine immunization efficacy in a therapeutic colitis setting, colitis was first induced by administering one cycle of colitis achieved by 5 days of 2% DSS in water followed by 5 days of normal drinking water for a total of 10 days.” left out, “At this point, i.p. immunizations were initiated and given three times over a 4-week period on days 20, 32, and 45, and colitis monitoring was reduced to twice weekly. An additional cycle of colitis was then induced on day 51 via 5 days of 2% DSS in water followed by 5 days of normal drinking water for a total of 10 days with daily monitoring.” left out
# FITC-dextran Measurements. […] To determine the intestinal barrier permeability, serum samples were diluted in 1×PBS and FITC fluorescence intensity was measured at an excitation of 488 nm and emission of 520 nm. […]
# Spleen Bacteria Measurements. […] After a 48 hr incubation at 37° C., colony forming units (CFUs) were counted and converted to CFU/g of spleen tissue via the equations: […]
# [4] = 2% DSS, 3 cycles, 30 days, vs disease controls
substance,measurement,setting,value
"(C11H22NO6P)n-CCCCSGSG-QQKFQFQFEQQ-NH2 (CCCCSGSGQQKFQFQFEQQ-NH2; not fully specified; cysteine pairing not given here; also: phosphorylcholine groups (C11H22NO6P) n=1-4, attachment not placed) [PCM-Q11, linear multi-PC conjugate]",colon plasma cells after chronic DSS colitis,[1],more plasma cells than disease controls
same,disease activity index (DAI) scores / disease severity,C57BL/6 mice [2]; [4],improved disease severity
same,weight loss,C57BL/6 mice [2]; [4],reduced weight loss
same,serum anti-PC IgG subclass responses at week 5,C57BL/6 mice [2]; before DSS administration,skewed the subclass response towards non-inflammatory IgG1 with IgG2b also present
same,IL-10 levels in colon homogenates,C57BL/6 mice [2]; chronic colitis experiment 1,highest levels that were not significantly different from healthy controls
same,colon length (colon shortening),"C57BL/6 mice [2]; day 30, vs disease controls",diminished colon shortening
same,serum anti-PC IgM,"C57BL/6 mice [2]; i.p. days −35, −21, −7, without CpG",did not induce anti-PC IgM within detection levels
same,anti-PC IgG responses in mice with prior DSS colitis,"C57BL/6 mice [3]; i.p. days 20, 32, 45, without CpG, vs immunization in absence of prior colitis",higher anti-PC IgG responses
same,IgG subclasses in mice with prior DSS colitis,"C57BL/6 mice [3]; mouse, in vivo",not altered
same,anti-PC IgM response in mice with prior DSS colitis,C57BL/6 mice [3]; without CpG,measurable anti-PC IgM response
